Assay results reported in US8318184B2, “MGLU2 agonists” (Eli Lilly and Company, priority 2009, dated 2012).

Tests used:
[1] = tested on: ICR(CD-1) mice; test: Reversal of Phencyclidine (PCP)-Induced Hyperlocomotor Activity in Mice; assay type: in vivo, mouse; details: i.p.
Excerpt: This assay for Reversal of Phencyclidine (PCP)-Induced Hyperlocomotor Activity in Mice is run substantially as the Reversal of Phencyclidine (PCP)-Induced Hyperlocomotor Activity in Rats assay provided above, using mice instead of rats and with the changes noted below.
Motor activity is monitored by placing individual male, ICR(CD-1), (Harlan, Indianapolis, Ind.) mice in transparent, plastic shoe-box cages of the dimensions 45×25×20 cm, with 0.5 cm depth of wood chips as bedding, and plastic lid on top of the cage. Motor monitors (Kinder Scientific) consist of a rectangular rack of 12 photobeams arranged in an 8×4 formation, (or a high density grouping of 22 in a 15×7 pattern) at a height of 2.5 cm. The shoe box cage is placed inside of these racks, with the racks on a 3 foot high tabletop in an isolated room. A compound of the present invention is dosed (intraperitoneal route, non-prodrug) usually within a range of 0.3-30 mg/kg; though higher doses may be used, 30 minutes prior to a 7.5 mg/kg challenge dose of phencyclidine (PCP). On the test day, mice are placed in the test cage and allowed to acclimate for 45 minutes prior to PCP challenge; mice are monitored for an additional 60 minutes following PCP administration.
Power analyses have determined that 7-8 mice per group are needed to have appropriate statistical power for detecting treatment differences (power=0.8).

[2] = target: T1, human mGlu2 receptor (Homo sapiens, UniProt Q14416); test: Human mGlu2 Agonist FLIPR Assay; assay type: cell-based; details: hmGlu2 FLIPR assay, AV-12 cells, relative EC50
T1 construct: expressed in transfected cells; co-transfected with rat EAAT1 and Galpha15
T1 sequence (Q14416 19-872): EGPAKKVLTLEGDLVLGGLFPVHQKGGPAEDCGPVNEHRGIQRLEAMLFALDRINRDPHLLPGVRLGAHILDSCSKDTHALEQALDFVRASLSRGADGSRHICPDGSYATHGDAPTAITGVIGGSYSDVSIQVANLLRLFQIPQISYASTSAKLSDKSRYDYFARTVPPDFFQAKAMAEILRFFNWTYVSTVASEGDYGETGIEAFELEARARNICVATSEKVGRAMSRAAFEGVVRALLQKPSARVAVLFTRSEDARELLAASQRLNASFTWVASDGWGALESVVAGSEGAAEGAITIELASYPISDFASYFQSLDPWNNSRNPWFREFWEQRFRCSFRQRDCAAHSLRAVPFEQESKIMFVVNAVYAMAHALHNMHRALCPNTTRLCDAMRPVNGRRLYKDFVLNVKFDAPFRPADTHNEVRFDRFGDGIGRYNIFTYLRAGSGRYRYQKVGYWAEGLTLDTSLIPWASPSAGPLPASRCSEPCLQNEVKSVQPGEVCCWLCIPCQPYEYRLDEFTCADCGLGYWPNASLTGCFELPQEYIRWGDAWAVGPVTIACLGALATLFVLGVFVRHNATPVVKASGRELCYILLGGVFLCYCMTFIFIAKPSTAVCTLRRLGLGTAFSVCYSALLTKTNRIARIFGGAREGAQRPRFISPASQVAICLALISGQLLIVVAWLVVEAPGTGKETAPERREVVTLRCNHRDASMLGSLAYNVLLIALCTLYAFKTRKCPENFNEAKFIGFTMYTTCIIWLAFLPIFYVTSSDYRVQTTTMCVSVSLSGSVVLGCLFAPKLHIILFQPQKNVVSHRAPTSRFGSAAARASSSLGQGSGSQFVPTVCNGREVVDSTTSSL
Excerpt: AV-12 cell lines, derived from Syrian Hamster fibroblasts and stably expressing the human mGlu2 receptor and co-transfected with the rat glutamate transporter EAAT 1 (Excitatory Amino Acid Transporter 1) and the Gα15 subunit, are used for these studies. The expression of Gα15 allows Gi-coupled receptors to signal through the phospholipase C pathway, resulting in the ability to measure receptor activation by a fluorometric calcium response assay. […]
Intracellular calcium levels are monitored before and after the addition of compounds using a Fluorometric Imaging Plate Reader (FLIPR, Molecular Devices). […] Results are analyzed using Prism v4.03 (GraphPad Software). […] After taking an initial 5-sec fluorescent read on the FLIPR instrument, a compound of the present invention is added to the cell plate (50 μL per well). […] The compound effect is measured as maximal minus minimal peak heights in relative fluorescent units (RFUs) corrected for basal fluorescence measured in the absence of glutamate. […] Agonist effects are quantified as percent stimulation induced by compound alone relative to the maximal glutamate response. All data are calculated as relative EC50 values using a four-parameter logistic curve fitting program (ActivityBase v5.3.1.22).

[3] = tested on: NIH-Swiss mice; test: Forced Swim Test in mice; assay type: in vivo, mouse; details: i.p.
Method: In this assay, mechanisms with purported antidepressant-like activity decrease immobility in a brief inescapable forced swim episode.
The forced-swim test is conducted with both mice (male, NIH-Swiss mice, 20-25 g, Harlan Sprague-Dawley, Indianapolis, Ind.) and rats (male, Sprague-Dawley rats, 250-350 g, Harlan Sprague-Dawley, Indianapolis, Ind.). Mice are placed in clear plastic cylinders (diameter 10 cm; height: 25 cm) filled to 6 cm with 22-25° C. water for six min. The duration of immobility is recorded during the last 4 min of a six-minute trial. Rats are treated similarly, albeit in clear plastic cylinders of larger dimensions (diameter: 18 cm; height: 40 cm) filled with water (22-25° C.) to a depth of 16 cm for 15 min. Additionally, mice receive a single forced swim exposure; rats receive two, 5-min sessions separated by 24 hours (data is recorded only on Day 2). […] Imipramine is used as a positive control for these studies. […] Compounds are in a clear solution. The amount of time spent immobile (defined as movements only necessary to keep the subject's head above water) is the dependent measure and recorded by an observer blinded to the drug treatment of the subjects. Data are analyzed by post-hoc Dunnett's test with alpha level set at 0.05. The mouse version of the forced swim test is most commonly used.

[4] = 1 h, 10 µM, pH 7.4
Method: Frozen human duodenum intestinal homogenates (1:2 tissue:buffer ratio using 100 mM Tris Phosphate buffer, pH 7.4) are obtained from Celsius In Vitro Technologies (Baltimore, Md.) that were both phenylmethylsulphonylfluoride (PMSF) and EDTA free.
Each lot of human duodenum is obtained from a single donor and the intestine is scraped and the sections are frozen separate. All original tissue collections are performed at 4° C. and immediately frozen at −70° C. Human intestinal homogenates are thawed and diluted to a final protein concentration of 0.5 mg/mL in 100 mM PBS buffer, pH 7.4 immediately prior to the incubations.
Incubations are conducted in 96-well plates and all prodrug compounds are run in duplicate on each day. Stock prodrug compound solutions are prepared in water at a concentration of 1 mM. A 200 μL aliquot of 0.5 mg/mL intestinal homogenate and 196 μL of 100 mM PBS buffer are placed in a 96-well plate in a 37° C. water bath. Using a 96-well pipettor, 4 μL of the 1 mM prodrug compound solution is transferred into the homogenate. Immediately after addition of the prodrug compound (time zero) and after 1 hour incubation, 50 μL samples of the incubation mixture are removed using an automated disposable simultaneous 96 well pipettor and added directly to 200 μL of methanol quench solution containing 100 ng/mL of Internal Standard. The samples are then centrifuged at 3500 rpm for 5 minutes at 10° C. The supernatant (200 μL) is transferred to a final 96 well PCR plate and sealed for analysis by LC/MS/MS.
Concentrations of hydrolyzed compounds of the present invention in the incubation mixtures are determined using LC/MS/MS detection on a Sciex API 4000 quadrapole mass spectrometer with Analyst version 1.4.2, TurboIonSpray, positive ionization, and Selected Reaction Monitoring (SRM). A Waters Atlantis® T3 (20×2.1 mm, 5 μM) HPLC column is used at ambient temperature with a flow rate of 1.0 mL/min and a mobile phase gradient from 0.1% mobile phase A to 99% mobile phase A. Mobile phase A is 1000:5 water:heptafluorobuteric acid and mobile phase B is 1:1 methanol:glacial acetic acid.
Concentrations of hydrolyzed compounds of the present invention in the intestinal incubation mixtures are determined from standard curves prepared by replicate two-fold dilution starting at 10 μM in 100 mM PBS pH 7.4 and subsequently quenched with methanol-internal standard solution identical to the samples. Averages and standard deviations are calculated using Microsoft® Office Excel® 2007. Amount of hydrolysis is determined as a molar percentage of compound formed relative to prodrug compound concentration added. […] Final values are then normalized relative to the formation of Internal Compound Drug A.

[5] = mean and standard error of the mean

Compound | inhibition of PCP evoked ambulations ([1]; multiple dose experiment, 10 mg/kg dose) | inhibition of PCP evoked ambulations ([1]; single dose experiment of 10 mg/kg) | EC50 [2] | ED60 ([3]; 60 min prior to testing, single study) | antidepressant-like effects ([3]; F4,39=9.9, p<0.0001) | maximal effect, % of vehicle immobility levels ([3]; at the 10 mg/kg dose, single study) | ED60, mean of four separate replications [3, 5] | maximal effect, % of vehicle-treated immobility levels, four separate replications [3, 5] | human intestinal hydrolysis relative to Internal Prodrug Compound A [4]
N[C@@]1(C(=O)O)C[C@@H](Sc2nnc[nH]2)[C@H]2[C@H](C(=O)O)[C@H]21 [Example 1, (1R,2S,4R,5R,6R)-2-Amino-4-(4H-1,2,4-triazol-3-ylsulfanyl)bicyclo[3.1.0]hexane-2,6-dicarboxylic acid] | 81±5% | 78±9% | 23 nM | 10.5 mg/kg | prominent antidepressant-like effects | 61% | 6.1 ± 2.5 mg/kg | 49.5±11.5% | 
C[C@H](N)C(=O)N[C@@]1(C(=O)O)C[C@@H](Sc2nnc[nH]2)[C@H]2[C@H](C(=O)O)[C@H]21.Cl [Example 2, (1R,2S,4R,5R,6R)-2-[[(2S)-2-Aminopropanoyl]amino]-4-(1H-1,2,4-triazol-3-ylsulfanyl)bicyclo[3.1.0]hexane-2,6-dicarboxylic acid hydrochloride] |  |  |  |  |  |  |  |  | 61%
